Some results are limits rather than exact numbers.

The target of the assay is T1, human TGR5 (Homo sapiens, UniProt Q8TDU6).
T1 construct: expressed in transfected cells; host or cells: HEK293
T1 sequence (Q8TDU6 1-330): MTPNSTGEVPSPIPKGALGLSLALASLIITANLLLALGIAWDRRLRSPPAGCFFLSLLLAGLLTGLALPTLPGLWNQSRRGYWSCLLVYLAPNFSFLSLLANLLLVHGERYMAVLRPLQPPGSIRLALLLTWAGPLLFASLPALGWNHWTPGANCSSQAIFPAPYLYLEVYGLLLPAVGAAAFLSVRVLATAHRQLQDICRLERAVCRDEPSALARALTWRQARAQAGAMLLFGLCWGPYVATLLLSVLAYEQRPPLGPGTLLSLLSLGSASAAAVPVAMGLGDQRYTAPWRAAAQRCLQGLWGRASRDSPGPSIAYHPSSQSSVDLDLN
In words: Cell-based TGR5 assay (cAMP generation, HTRF). The conditions noted are these: HEK293 cells stably transfected with human TGR5; cAMP by HTRF; 30 minutes at 37° C.; read-out: pEC50 Human TGR5 (converted). In short, it runs like this:
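First, compounds in 3-fold serial dilution were placed in HBSS with 10 mM HEPES pH 7.4 and 0.5 mM IBMX. Next, human TGR5-expressing HEK293 cells were added and incubated 30 min at 37° C. Finally, cAMP was detected by HTRF and pEC50 derived by logistic fitting.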
For orientation: Time-resolved FRET reads energy transfer from a long-lived donor to a nearby acceptor.
`O=C(CCCCc1cc(Cl)c(COC2(c3cnccc3-c3ccccc3OC3CC3)CC2)cc1Cl)N[C@@H](CO)[C@@H](O)[C@H](O)[C@H](O)CO` [Compound I-156, 5-[2,5-dichloro-4-({1-[4-(2-cyclopropoxyphenyl)pyridin-3-yl]cyclopropoxy}methyl)phenyl]-N-[(2S,3R,4S,5R)-1,3,4,5,6-pentahydroxyhexan-2-yl]pentanamide]: the EC50 was under 100 nM.

In the case of `CN(CCCCNC(=O)NC[C@H](O)[C@@H](O)[C@H](O)[C@H](O)CO)S(=O)(=O)c1ccc(C(F)(F)F)c(COC2(c3cnccc3-c3ccccc3OC3CC3)CC2)c1` [Compound I-469, 1-{4-[N-methyl3-({1-[4-(2-cyclopropoxyphenyl)pyridin-3-yl]cyclopropoxy}methyl)-4-(trifluoromethyl)benzenesulfonamido]butyl}-3-[(2S,3R,4R,5R)-2,3,4,5,6-pentahydroxyhexyl]urea], the EC50 is under 100 nM.

For the compound `Cc1ccc([C@H](C)CCCC(=O)N(C)C[C@H](O)[C@@H](O)[C@H](O)[C@H](O)CO)cc1CNC1(c2cnccc2-c2ccccc2OC2CC2)CC1` (single isomer, unassigned) [Compound I-351], the EC50 was under 100 nM.

For `O=C([C@@H](O)[C@@H](O)[C@H](O)[C@@H](O)CO)N(CCCSc1ccc(Cl)c(CNC2(c3cnccc3-c3ccccc3OC3CC3)CC2)c1)CCOCCO` [Compound I-526, (2S,3S,4R,5S)-N-[3-({4-chloro-3-[({1-[4-(2-cyclopropoxyphenyl)pyridin-3-yl]cyclopropyl}amino)methyl]phenyl}sulfanyl)propyl]-2,3,4,5,6-pentahydroxy-N-[2-(2-hydroxyethoxy)ethyl]hexanamide], the EC50 is 126 to 1000 nM.

`O=C(CCCSc1ccc(Cl)c(COC2(c3cnccc3-c3ccccc3OC3CC3)CC2)c1)NC[C@H](O)[C@@H](O)[C@H](O)[C@H](O)CO` [Compound I-498, 4-[[4-Chloro-3-([1-[4-(2-cyclopropoxyphenyl)pyridin-3-yl]cyclopropoxy]methyl)phenyl]sulfanyl]-N-[(2S,3R,4R,5R)-2,3,4,5,6-pentahydroxyhexyl]butanamide]: the EC50 is under 100 nM.

As to `C=C(CCCNC(=O)[C@@H](O)[C@@H](O)[C@H](O)[C@@H](O)CO)c1ccc(Cl)c(CNC2(c3cnccc3-c3ccccc3OC3CC3)CC2)c1` [Compound I-381, (2S,3S,4R,5S)-N-(4-[4-chloro-3-[([1-[4-(2-cyclopropoxyphenyl)pyridin-3-yl]cyclopropyl]amino)methyl]phenyl]pent-4-en-1-yl)-2,3,4,5,6-pentahydroxyhexanamide], the EC50 is under 100 nM.

For the compound `O=C(CC1CN(S(=O)(=O)c2ccc(Cl)c(COC3(c4cnccc4-c4ccccc4OC4CC4)CC3)c2)C1)NC[C@H](O)[C@@H](O)[C@H](O)[C@H](O)CO` [Compound I-438, 2-{1-[4-chloro-3-({1-[4-(2-cyclopropoxyphenyl)pyridin-3-yl]cyclopropoxy}methyl)benzenesulfonyl]azetidin-3-yl}-N-[(2S,3R,4R,5R)-2,3,4,5,6-pentahydroxyhexyl]acetamide], the EC50 was under 100 nM.

Turning to `O=S(=O)(Nc1ccccc1)c1ccc(Cl)c(COC2(c3cnccc3-c3ccccc3OC3CC3)CC2)c1` [Compound I-771, 4-chloro-3-((1-(4-(2-cyclopropoxyphenyl)pyridin-3-yl)cyclopropoxy)methyl)-N-phenylbenzenesulfonamide], the EC50 is under 100 nM.

With `CS(=O)(=O)NCCCCN(CCCCSc1ccc(Cl)c(COC2(c3cnccc3-c3ccccc3OC3CC3)CC2)c1)C(=O)[C@@H](O)[C@@H](O)[C@H](O)[C@@H](O)CO` [Compound I-570, (2S,3S,4R,5S)-N-(4-{[4-chloro-3-({1-[4-(2-cyclopropoxyphenyl)pyridin-3-yl]cyclopropoxy}methyl)phenyl]sulfanyl}butyl)-2,3,4,5,6-pentahydroxy-N-(4-methanesulfonamidobutyl) hexanamide], the EC50 is under 100 nM.
